Experimental findings from patent US9914730B2, “Azaquinazoline inhibitors of Atypical protein Kinase C” (Ignyta, Inc., priority 2012, dated 2018) are described below.

pIC50: −log10 of the molar value. Some results are limits rather than exact numbers.

The assay has as its target T1, full-length human PKCι (Homo sapiens, UniProt P41743).
T1 construct: Recombinant, full-length human PKCι expressed in Sf21 insect cells is also commercially available; purchased; host or cells: Sf21 insect cells
T1 sequence (P41743 1-596): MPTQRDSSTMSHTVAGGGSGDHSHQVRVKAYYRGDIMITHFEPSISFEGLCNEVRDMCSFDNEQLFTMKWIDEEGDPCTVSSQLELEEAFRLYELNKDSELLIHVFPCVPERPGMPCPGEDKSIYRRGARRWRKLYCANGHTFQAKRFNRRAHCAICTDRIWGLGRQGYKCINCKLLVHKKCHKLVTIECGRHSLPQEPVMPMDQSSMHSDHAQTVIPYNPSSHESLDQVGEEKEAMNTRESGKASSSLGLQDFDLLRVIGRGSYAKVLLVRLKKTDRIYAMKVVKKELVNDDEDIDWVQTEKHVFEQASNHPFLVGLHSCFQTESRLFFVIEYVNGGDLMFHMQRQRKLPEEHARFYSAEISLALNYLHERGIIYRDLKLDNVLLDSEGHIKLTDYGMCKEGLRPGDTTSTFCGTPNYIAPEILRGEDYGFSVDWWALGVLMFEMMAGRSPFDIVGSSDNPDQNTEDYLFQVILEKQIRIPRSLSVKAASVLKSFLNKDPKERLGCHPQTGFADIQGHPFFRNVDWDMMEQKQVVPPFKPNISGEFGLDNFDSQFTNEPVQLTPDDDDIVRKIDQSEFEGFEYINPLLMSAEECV
Kind of assay: PKCι IC50 IMAP assay, full-length PKCι at 150 μM ATP. To be noted: read-out: IC50 in IMAP assay against full length PKCi at 150 μM ATP. In kind it is biochemical. In a few lines:
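Recombinant full-length human PKCι (Sf21-expressed, typically 15 pM) phosphorylated 100 nM 5FAM-labelled PKCε pseudosubstrate-derived peptide with 150 μM ATP (5× KM^APP) in 18 mM tris-HCl pH7.5, 9 mM MgCl2, EGTA, DTT, 4% DMSO. After 60 min at room temperature, IMAP binding reagent was added for 2 h and fluorescence polarisation read.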
As a reminder, the pIC50 is the negative decadic logarithm of the IC50, by convention in mol/L. For `Fc1cccc2nc(Nc3cc(-c4nc(N5CCNCC5)c5c(C6CC6)cncc5n4)ccn3)nn12` [Example 2041, [4-(5-Cyclopropyl-4-piperazin-1-yl-pyrido[3,4-d]pyrimidin-2-yl)-pyridin-2-yl]-(5-fluoro-[1,2,4]triazolo[1,5-a]pyridin-2-yl)-amine], the pIC50 was above 7.00.

`CCn1cc(Cl)c(Nc2cc(-c3nc(N4CCNC(C)(C)C4)c4c(C5CC5)cncc4n3)ccn2)n1` [Example 2043, (4-Chloro-1-ethyl-1H-pyrazol-3-yl)-{4-[5-cyclopropyl-4-(3,3-dimethyl-piperazin-1-yl)-pyrido[3,4-d]pyrimidin-2-yl]-pyridin-2-yl}-amine]: the pIC50 was above 7.00.

For `c1ccc2oc(Nc3cc(-c4nc(N5CCNCC5)c5c(C6CC6)cncc5n4)ccn3)nc2c1` [Example 2044, Benzooxazol-2-yl-[4-(5-cyclopropyl-4-piperazin-1-yl-pyrido[3,4-d]pyrimidin-2-yl)-pyridin-2-yl]-amine], the negative-log IC50 (pIC50) is above 7.00.

In the case of `c1ccc2sc(Nc3cc(-c4nc(N5CCNCC5)c5c(C6CC6)cncc5n4)ccn3)nc2c1` [Example 2045, Benzothiazol-2-yl-[4-(5-cyclopropyl-4-piperazin-1-yl-pyrido[3,4-d]pyrimidin-2-yl)-pyridin-2-yl]-amine], the pIC50 is above 7.00.

Take `Cn1c(Nc2cc(-c3nc(N4CCNCC4)c4c(C5CC5)cncc4n3)ccn2)nc2ccccc21` [Example 2046, [4-(5-Cyclopropyl-4-piperazin-1-yl-pyrido[3,4-d]pyrimidin-2-yl)-pyridin-2-yl]-(1-methyl-1H-benzoimidazol-2-yl)-amine]: the pIC50 was above 7.00.

Take `Fc1cc(C2CC2)c(F)nc1Nc1cc(-c2nc(N3CCNCC3)c3c(C4CC4)cncc3n2)ccn1` [Example 2047, (5-Cyclopropyl-3,6-difluoro-pyridin-2-yl)-[4-(5-cyclopropyl-4-piperazin-1-yl-pyrido[3,4-d]pyrimidin-2-yl)-pyridin-2-yl]-amine]: the pIC50 is above 7.00.

Consider `Fc1ccc(C2(c3cc4c(-c5nc(N6CCNCC6)c6c(C7CC7)cncc6n5)ccnc4[nH]3)CC2)cc1` [Example 2048, 5-Cyclopropyl-2-{2-[1-(4-fluoro-phenyl)-cyclopropyl]-1H-pyrrolo[2,3-b]pyridin-4-yl}-4-piperazin-1-yl-pyrido[3,4-d]pyrimidine], for which the negative-log IC50 (pIC50) was above 7.00.

Take `C[C@H]1CN(c2nc(-c3ccnc(NC4CCN(CC(F)(F)F)CC4)c3)nc3cncc(C4CC4)c23)CCN1` [Example 2049, {4-[5-Cyclopropyl-4-((S)-3-methyl-piperazin-1-yl)-pyrido[3,4-d]pyrimidin-2-yl]-pyridin-2-yl}-[1-(2,2,2-trifluoro-ethyl)-piperidin-4-yl]-amine]: the pIC50 is above 7.00.

As for `c1ccc2cc(Nc3cc(-c4nc(N5CCNCC5)c5c(C6CC6)cncc5n4)ccn3)ccc2c1` [Example 2050, [4-(5-Cyclopropyl-4-piperazin-1-yl-pyrido[3,4-d]pyrimidin-2-yl)-pyridin-2-yl]-naphthalen-2-yl-amine], the pIC50 was above 7.00.

With `c1ccc(-c2cccc(Nc3cc(-c4nc(N5CCNCC5)c5c(C6CC6)cncc5n4)ccn3)c2)cc1` [Example 2051, Biphenyl-3-yl-[4-(5-cyclopropyl-4-piperazin-1-yl-pyrido[3,4-d]pyrimidin-2-yl)-pyridin-2-yl]-amine], the negative logarithm of the IC50 (pIC50) was above 7.00.

For `CN1CCN(c2cccc(Nc3cc(-c4nc(N5CCN[C@@H](C(F)(F)F)C5)c5c(C6CC6)cncc5n4)ccn3)c2)CC1` [Example 2052, {4-[5-Cyclopropyl-4-((R)-3-trifluoromethyl-piperazin-1-yl)-pyrido[3,4-d]pyrimidin-2-yl]-pyridin-2-yl}-[3-(4-methyl-piperazin-1-yl)-phenyl]-amine], the pIC50 is above 7.00.

Turning to `Cn1ccc(Nc2cc(-c3nc(N4CCN[C@@H](C(F)(F)F)C4)c4c(C5CC5)cncc4n3)ccn2)n1` [Example 2053, {4-[5-Cyclopropyl-4-((R)-3-trifluoromethyl-piperazin-1-yl)-pyrido[3,4-d]pyrimidin-2-yl]-pyridin-2-yl}-(1-methyl-1H-pyrazol-3-yl)-amine], the negative-log IC50 (pIC50) is above 7.00.

As to `Fc1cc(F)c(F)c(Nc2cc(-c3nc(N[C@@H]4CCNC4)c4c(C5CC5)cncc4n3)ccn2)n1` [Example 2054, {5-Cyclopropyl-2-[2-(3,4,6-trifluoro-pyridin-2-ylamino)-pyridin-4-yl]-pyrido[3,4-d]pyrimidin-4-yl}-(R)-pyrrolidin-3-yl-amine], the pIC50 is above 7.00.

On to `Cn1nccc1-c1ccc(Nc2cc(-c3nc(N4CCNCC4)c4c(C5CC5)cncc4n3)ccn2)c(F)c1` [Example 2055, [4-(5-Cyclopropyl-4-piperazin-1-yl-pyrido[3,4-d]pyrimidin-2-yl)-pyridin-2-yl]-[2-fluoro-4-(2-methyl-2H-pyrazol-3-yl)-phenyl]-amine], for which the pIC50 was above 7.00.

As to `Fc1cc(F)c(Nc2cc(-c3nc(N[C@@H]4CCNC4)c4c(C5CC5)cncc4n3)ccn2)nc1F` [Example 2056, {5-Cyclopropyl-2-[2-(3,5,6-tritluoro-pyridin-2-ylamino)-pyridin-4-yl]-pyrido[3,4-d]pyrimidin-4-yl}-(R)-pyrrolidin-3-yl-amine], the pIC50 was above 7.00.

On to `CN(c1nc(-c2ccnc(Nc3c(F)cccc3F)c2)nc2cncc(C3CC3)c12)[C@@H]1CCNC1` [Example 2057, {5-Cyclopropyl-2-[2-(2,6-difluoro-phenylamino)-pyridin-4-yl]-pyrido[3,4-d]pyrimidin-4-yl}-methyl-(R)-pyrrolidin-3-yl-amine], for which the pIC50 was above 7.00.

Turning to `Fc1cccc(F)c1Nc1cc(-c2nc(NC3CCCNCC3)c3c(C4CC4)cncc3n2)ccn1` (stereo not shown) [Example 2058, Azepan-4-yl-{5-cyclopropyl-2-[2-(2,6-difluoro-phenylamino)-pyridin-4-yl]-pyrido[3,4-d]pyrimidin-4-yl}-amine], the negative-log IC50 (pIC50) is above 7.00.

With `c1ccc2c(Nc3cc(-c4nc(N5CCNCC5)c5c(C6CC6)cncc5n4)ccn3)cccc2c1` [Example 2059, [4-(5-Cyclopropyl-4-piperazin-1-yl-pyrido[3,4-d]pyrimidin-2-yl)-pyridin-2-yl]-naphthalen-1-yl-amine], the negative-log IC50 (pIC50) is above 7.00.

For `c1ccc2cc(Nc3cc(-c4nc(N5CCNCC5)c5c(C6CC6)cncc5n4)ccn3)ncc2c1` [Example 2060, [4-(5-Cyclopropyl-4-piperazin-1-yl-pyrido[3,4-d]pyrimidin-2-yl)-pyridin-2-yl]-iso[D4],[D3]uinolin-3-yl-amine], the pIC50 is above 7.00.

For the compound `Cn1nc(Nc2cc(-c3nc(N4CCNCC4)c4c(C5CC5)cncc4n3)ccn2)c2ccccc21` [Example 2061, [4-(5-Cyclopropyl-4-piperazin-1-yl-pyrido[3,4-d]pyrimidin-2-yl)-pyridin-2-yl]-(1-methyl-1H-indazol-3-yl)-amine], the negative logarithm of the IC50 (pIC50) is above 7.00.

For `Fc1cc(F)c(F)c(Nc2cc(-c3nc(NC4CCNCC4)c4c(C5CC5)cncc4n3)ccn2)n1` [Example 2062, {5-Cyclopropyl-2-[2-(3,4,6-trifluoro-pyridin-2-ylamino)-pyridin-4-yl]-pyrido[3,4-d]pyrimidin-4-yl}-piperidin-4-yl-amine], the negative-log IC50 (pIC50) was above 7.00.

`CC(C)(c1cc2c(-c3nc(N4CCNCC4)c4c(C5CC5)cncc4n3)ccnc2[nH]1)C(F)(F)F` [Example 2063, 5-Cyclopropyl-4-piperazin-1-yl-2-[2-(2,2,2-trifluoro-1,1-dimethyl-ethyl)-1H-pyrrolo[2,3-b]pyridin-4-yl]-pyrido[3,4-d]pyrimidine]: the pIC50 was above 7.00.
